Measurements as given in PubChem BioAssay AID743339 (Broad Institute, 2014).
Calls of active or inactive are those of the source.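 Rule for the calls: active = activation curve crossing 200% at or below the highest valid dose tested for that sample; inconclusive = flat curve with activation between 30 and 70%, or poor fit; inactive = the rest, including signal falling instead of rising.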

Biological target: Leucyl-cystinyl aminopeptidase (Mus musculus) (UniProt Q8C129)
Experiment: IRAP activators, dose response, selectivity assay for ERAP1 modulator project, biochemical, Leu-AMC fluorescence, cherry-picked samples (AID 743339)
Settings: purified IRAP, Leu-AMC cleavage fluorescence, 1 h; for activation: at 11 µM (top of the series)

Chain of Leucyl-cystinyl aminopeptidase (Mus musculus) (Q8C129 whole entry, looked up): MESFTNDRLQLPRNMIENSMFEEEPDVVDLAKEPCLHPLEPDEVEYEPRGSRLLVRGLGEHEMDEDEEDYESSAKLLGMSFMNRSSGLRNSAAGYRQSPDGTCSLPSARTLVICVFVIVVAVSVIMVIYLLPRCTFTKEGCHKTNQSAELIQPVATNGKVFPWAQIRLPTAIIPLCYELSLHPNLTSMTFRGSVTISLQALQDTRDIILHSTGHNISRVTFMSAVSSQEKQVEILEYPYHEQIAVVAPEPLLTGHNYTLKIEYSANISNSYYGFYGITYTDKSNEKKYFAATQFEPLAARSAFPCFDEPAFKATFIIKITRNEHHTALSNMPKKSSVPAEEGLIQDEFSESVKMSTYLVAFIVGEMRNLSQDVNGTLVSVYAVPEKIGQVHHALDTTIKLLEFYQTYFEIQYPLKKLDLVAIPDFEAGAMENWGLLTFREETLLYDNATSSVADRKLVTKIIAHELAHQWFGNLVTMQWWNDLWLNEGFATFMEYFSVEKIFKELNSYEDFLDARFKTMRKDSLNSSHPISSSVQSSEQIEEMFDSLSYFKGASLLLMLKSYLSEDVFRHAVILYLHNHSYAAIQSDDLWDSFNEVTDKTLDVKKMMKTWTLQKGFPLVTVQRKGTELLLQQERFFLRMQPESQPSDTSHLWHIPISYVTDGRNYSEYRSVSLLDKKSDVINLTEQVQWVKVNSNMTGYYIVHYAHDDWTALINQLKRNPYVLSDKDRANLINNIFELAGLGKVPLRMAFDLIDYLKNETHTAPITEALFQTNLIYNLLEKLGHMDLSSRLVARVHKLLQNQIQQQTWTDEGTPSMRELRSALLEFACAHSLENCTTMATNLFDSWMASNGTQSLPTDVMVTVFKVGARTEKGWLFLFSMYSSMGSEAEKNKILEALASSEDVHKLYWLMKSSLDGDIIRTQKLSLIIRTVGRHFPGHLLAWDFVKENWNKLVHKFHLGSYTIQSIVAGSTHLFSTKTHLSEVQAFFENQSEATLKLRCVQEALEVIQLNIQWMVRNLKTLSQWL

| activation | AC200 | Compound |
| --- | --- | --- |
| 9.92% (inactive) | – | C[C@@H]1CCCCO[C@H](CN(C)Cc2ccc(C(=O)O)cc2)[C@@H](C)CN([C@H](C)CO)C(=O)c2cc(NC(=O)Nc3ccc(C(F)(F)F)cc3)ccc2O1 |
| – | 1290 nM | CC(=O)N1[C@@H]2Cn3c(ccc(/C=C/c4ccccc4)c3=O)[C@H]1[C@@H](C(=O)NCC1CC1)[C@@H]2CO |
| – | 793 nM | COc1cccc(CN(C)Cc2cc(=O)oc3cc(O)c(Cl)cc23)c1 |
| -6.14% (inactive) | – | CCCN(C)C[C@@H]1OCCCC[C@@H](C)Oc2ccc(NS(=O)(=O)c3cccs3)cc2C(=O)N([C@H](C)CO)C[C@@H]1C |
| -13.3% (inactive) | – | C[C@@H]1CCCCO[C@@H](CN(C)S(C)(=O)=O)[C@@H](C)CN([C@@H](C)CO)C(=O)c2cc(NS(=O)(=O)c3ccc(Cl)cc3)ccc2O1 |
